# From paper PMC10145310, “Optimization of Ultrasonic-Assisted Extraction of α-Glucosidase Inhibitors from Dryopteris crassirhizoma Using Artificial Neural Network and Response Surface Methodology” (Metabolites, 2023)
# Assays:
# SARS-CoV-2 = tested on: SARS-CoV-2; set-up: method as in PMID 35214108; conditions: Vero cells, immunofluorescence-based antiviral assays; cited from earlier work
# influenza A virus H1N1 = tested on: influenza A virus H1N1; set-up: method as in PMID 34971945; conditions: cited from earlier work
# RAW264.7 cells = tested on: RAW264.7 cells; set-up: method as in PMID 34971945; conditions: RAW264.7 cells induced with lipopolysaccharide; cited from earlier work
# β-glucuronidase = biological target: β-glucuronidase; set-up: method as in PMID 36295840; conditions: previous studies; cited from earlier work
# α-glucosidase = biological target: T1, α-glucosidase (Saccharomyces cerevisiae, UniProt P53341); experiment: α-glucosidase inhibition assay (4-nitrophenyl-D-glucopyranoside substrate, 405 nm); assay type: biochemical; conditions: for inhibition at 100 µM: compound at 100 µM, mean ± SEM, triplicate
# T1 construct: purchased Merck (Germany) G5003
# Protocol: The α-glucosidase assay was performed as previously described. First, 130 μL of α-glucosidase (0.16 unit/mL) in 0.1 mM phosphate buffer (pH 6.8) was added to a 96-well plate with 20 μL of test compounds dissolved in dimethylsulfoxide. Then, 50 μL of 1 mM substrate (4-nitrophenyl-D-glucopyranoside) in the buffer was added to the mixture. The intensity of p-nitrophenol converted from 4-nitrophenyl-D-glucopyranoside by α-glucosidase was measured after […] at 405 nm using Infinite 200 PRO spectrophotometer (Tecan, Zürich, Switzerland). (1) Inhibitory activity rate (%)=[(ΔC−ΔS)/ΔC]×100 where ΔC and ΔS are the intensity of control and inhibitor after 20 min, respectively. […] The inhibitory effect was elucidated via triplicate independent experiments. […] Statistical differences were investigated using one-way ANOVA and Duncanʹs test with a p-value < 0.05. SigmaPlot 10.0 (Systat Software Inc., San Jose, CA, USA) was used to analyze the inhibition results.
# PTP1B = tested on: PTP1B; set-up: method as in PMID 34416263; conditions: previous studies; cited from earlier work
# [1] = tested on: platelet aggregation induced by arachidonic acid; set-up: method as in PMID 31200488; conditions: cited from earlier work
# [2] = tested on: platelet aggregation induced by collagen; set-up: method as in PMID 31200488; conditions: cited from earlier work
# T1 sequence (P53341 whole entry): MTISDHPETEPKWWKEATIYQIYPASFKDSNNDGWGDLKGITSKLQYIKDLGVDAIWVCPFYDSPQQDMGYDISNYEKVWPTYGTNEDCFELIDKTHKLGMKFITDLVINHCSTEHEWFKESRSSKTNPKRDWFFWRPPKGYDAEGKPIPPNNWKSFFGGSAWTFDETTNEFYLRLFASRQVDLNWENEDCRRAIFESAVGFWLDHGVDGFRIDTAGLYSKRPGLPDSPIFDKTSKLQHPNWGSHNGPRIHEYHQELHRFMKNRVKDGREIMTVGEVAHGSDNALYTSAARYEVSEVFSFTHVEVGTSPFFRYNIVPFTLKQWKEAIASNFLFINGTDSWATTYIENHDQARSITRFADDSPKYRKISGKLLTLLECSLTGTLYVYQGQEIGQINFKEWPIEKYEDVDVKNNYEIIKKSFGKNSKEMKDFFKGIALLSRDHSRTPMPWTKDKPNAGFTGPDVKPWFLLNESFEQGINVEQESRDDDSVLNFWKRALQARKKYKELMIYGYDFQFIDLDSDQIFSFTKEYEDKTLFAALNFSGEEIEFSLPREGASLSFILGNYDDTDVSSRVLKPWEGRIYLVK
molecule,measurement,setting,value
dryocrassin ABBA,inhibitory activity against SARS-CoV-2 infection,SARS-CoV-2,dose-dependent inhibitory activity
filixic acid ABA,inhibitory activity against SARS-CoV-2 infection,SARS-CoV-2,dose-dependent inhibitory activity
same,antiviral effect against influenza A virus H1N1,influenza A virus H1N1,responsible for the antiviral effect
3″-epi-dryoptol G,effect on production of nitric oxide and secretion of IL-1β and IL-18,RAW264.7 cells,significant inhibitory effects
"CCCC(=O)c1c(O)cc(O)c(Cc2c(O)c(CC3=C(O)C(C)(C)C(O)=C(C(C)=O)C3=O)c(O)c(C(=O)CCC)c2O)c1O [Compound 2, nortrisflavaspidic acid ABB]",IC50,β-glucuronidase,8 ± 1.8 µM
same,IC50,α-glucosidase,34 ± 0.14 µM
same,inhibition at 100 µM,α-glucosidase,> 50%
same,IC50,PTP1B,1.19 ± 0.13 µM
"C[C@H]1O[C@H](O[C@H]2[C@H](O)[C@@H](O)[C@@H](O[C@H]3[C@H](O)[C@@H](O)C(O)O[C@@H]3CO)O[C@@H]2CO)[C@H](O)[C@@H](O)[C@@H]1N[C@H]1C=C(CO)[C@@H](O)[C@H](O)[C@H]1O (stereo partly shown) [Acarbose, acarbose]",inhibition at 100 µM,α-glucosidase,21.7 ± 1.43%
"CCC(=O)c1c(O)c(C)c(O)c(CC2=C(O)C(C)(C)C(O)=C(C(C)=O)C2=O)c1O [Compound 1, flavaspidic acid AP]",inhibition at 100 µM,α-glucosidase,< 50%
CCCC(=O)c1c(O)cc(O)c(C)c1O [butyryl-3-methylphloroglucinol],"inhibition of platelet aggregation, ratio",[1],89.51%
same,"inhibition of platelet aggregation, ratio",[2],92.36%
dryoptol G,effect on production of nitric oxide and secretion of IL-1β and IL-18,RAW264.7 cells,significant inhibitory effects
